{"source": "patent US20190192455A1", "about": "“USE OF CELIPROLOL FOR TREATING KYPHOSCOLIOTIC EHLERS-DANLOS SYNDROME” (Assistance Publique-Hospitaux de Paris (AP-HP), priority 2017, published 2019)", "key": {"[1]": {"system": "kyphoscoliotic EDS patient", "assay": "Case report: celiprolol in prevention of further arterial events in a kyphoscoliotic EDS patient", "assay_type": "in vivo, human", "text": "All ruptures occurred following minor trauma. The right eye ruptured twice, the left eye once only. […] Their family history was remarkable by the death of their only and younger sibling, by spontaneous abdominal aortic rupture. Their phenotype was similar to their […] sibling's.\nPhysical examination evidenced major cutaneous fragility (bruising) and dystrophic scars. […] furthermore presented a severe kyphoscoliosis and diffuse joint hypermobility (Beighton score 8/9) with instability, particularly of the left shoulder (recurrent dislocations). Further osteoarticular signs were pes planus and minor pectus excavatum. […] The dissecting aneurysm of the celiac trunk also remained stable and a complete regression of the extension of the dissection to the SMA was noted. Two years later, the patient presented with similar pain in the left calf. Doppler ultrasound documented a left tibial anterior dissecting aneurysm. This second clinical event also resolved medically. Celiprolol was initiated and up-titrated to the optimally tolerated dose (400 mg/day) in prevention of further arterial events."}, "vascular EDS patients": {"system": "vascular EDS patients", "conditions": "vascular EDS patients taking celiprolol, compared to placebo (Ong et al., 2010); cited from earlier work"}}, "data": [{"smiles": "CCN(CC)C(=O)Nc1ccc(OCC(O)CNC(C)(C)C)c(C(C)=O)c1", "note": "(stereo not shown) [Celiprolol, N′-(3-Acetyl-4-(3-((1,1-dimethylethyl)amino)-2-hydroxypropoxy)phenyl)-N, N-diethylurea]", "values": [{"measurement": "clinical course (arterial events) under celiprolol", "setting": "[1]; one patient with recurrent arterial dissections, up-titrated to 400 mg/day, 3 years follow-up", "result": "remained clinically silent"}, {"measurement": "systematic arterial monitoring for silent arterial defects", "setting": "[1]; same patient, 400 mg/day, 3 years follow-up", "result": "did not evidence further silent arterial defects"}, {"measurement": "novel arterial manifestation under celiprolol treatment", "setting": "[1]; same patient, four year follow-up", "result": "without novel arterial manifestation"}, {"measurement": "incidence of arterial rupture or dissection", "setting": "vascular EDS patients", "result": "decreased incidence of arterial rupture or dissection"}]}]}
